Here are results for 22 molecules from ChEMBL document CHEMBL3991601, “The target landscape of clinical kinase drugs” (Science, 2017).

Active and inactive are the calls of the source. Cut-off read from the data, not from the text of the source, for most assays here: actives have a measured Kd and inactives only a lower limit.

Test [1] addresses Ribosomal protein S6 kinase alpha-3 (Homo sapiens, UniProt P51812).
The target of test [2] is Serine/threonine-protein kinase 10 (Homo sapiens, UniProt O94804).
Chain of Serine/threonine-protein kinase 10 (O94804 whole entry): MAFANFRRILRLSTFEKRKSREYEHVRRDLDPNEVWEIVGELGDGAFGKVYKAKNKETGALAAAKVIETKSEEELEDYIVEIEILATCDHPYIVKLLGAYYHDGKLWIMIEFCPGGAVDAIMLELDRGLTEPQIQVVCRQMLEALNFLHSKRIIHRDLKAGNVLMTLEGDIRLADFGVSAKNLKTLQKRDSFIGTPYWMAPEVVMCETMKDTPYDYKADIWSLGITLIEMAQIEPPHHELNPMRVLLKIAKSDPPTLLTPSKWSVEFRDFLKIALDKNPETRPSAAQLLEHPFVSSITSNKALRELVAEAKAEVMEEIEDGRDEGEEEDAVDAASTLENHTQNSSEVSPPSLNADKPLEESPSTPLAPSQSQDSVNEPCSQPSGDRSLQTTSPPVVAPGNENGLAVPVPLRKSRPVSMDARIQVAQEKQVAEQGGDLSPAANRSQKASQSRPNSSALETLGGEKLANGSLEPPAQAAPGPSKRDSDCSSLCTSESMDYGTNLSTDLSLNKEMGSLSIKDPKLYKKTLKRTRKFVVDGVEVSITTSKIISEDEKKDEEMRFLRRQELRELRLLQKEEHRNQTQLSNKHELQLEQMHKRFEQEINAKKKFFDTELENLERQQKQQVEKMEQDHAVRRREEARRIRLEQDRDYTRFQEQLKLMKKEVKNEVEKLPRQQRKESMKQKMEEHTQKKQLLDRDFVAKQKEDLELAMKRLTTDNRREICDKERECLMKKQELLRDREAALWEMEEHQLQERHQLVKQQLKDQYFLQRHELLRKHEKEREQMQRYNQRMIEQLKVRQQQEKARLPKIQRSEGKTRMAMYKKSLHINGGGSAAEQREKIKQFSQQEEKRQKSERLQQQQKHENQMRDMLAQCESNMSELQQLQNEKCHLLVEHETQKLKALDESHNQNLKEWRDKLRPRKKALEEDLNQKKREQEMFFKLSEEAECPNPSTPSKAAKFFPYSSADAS
Test [3] addresses T1, MAP/microtubule affinity-regulating kinase 4 (Homo sapiens, UniProt Q96L34).
T1 sequence (Q96L34 whole entry): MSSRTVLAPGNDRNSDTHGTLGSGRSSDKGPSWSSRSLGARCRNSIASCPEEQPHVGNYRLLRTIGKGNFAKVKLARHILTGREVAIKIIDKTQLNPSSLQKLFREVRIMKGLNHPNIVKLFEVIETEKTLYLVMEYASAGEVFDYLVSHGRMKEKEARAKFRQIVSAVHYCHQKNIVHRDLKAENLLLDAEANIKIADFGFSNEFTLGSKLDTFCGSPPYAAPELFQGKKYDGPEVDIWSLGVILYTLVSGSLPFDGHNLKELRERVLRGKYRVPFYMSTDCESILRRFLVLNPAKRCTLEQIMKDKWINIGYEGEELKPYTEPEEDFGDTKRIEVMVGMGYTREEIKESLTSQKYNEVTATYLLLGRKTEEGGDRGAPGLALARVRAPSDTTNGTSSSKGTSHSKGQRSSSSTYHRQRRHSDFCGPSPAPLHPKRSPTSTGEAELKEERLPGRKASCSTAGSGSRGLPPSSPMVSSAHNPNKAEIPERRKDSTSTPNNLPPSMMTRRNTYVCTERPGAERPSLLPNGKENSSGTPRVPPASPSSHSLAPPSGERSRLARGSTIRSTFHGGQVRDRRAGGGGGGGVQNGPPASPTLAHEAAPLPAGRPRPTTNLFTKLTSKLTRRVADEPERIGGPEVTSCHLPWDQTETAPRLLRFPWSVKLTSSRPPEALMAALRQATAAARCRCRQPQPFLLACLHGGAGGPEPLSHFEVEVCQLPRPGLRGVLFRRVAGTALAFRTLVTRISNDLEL

For test [4], the target named is Serine/threonine-protein kinase SIK2 (Homo sapiens, UniProt Q9H0K1).
Chain of Serine/threonine-protein kinase SIK2 (Q9H0K1 whole entry): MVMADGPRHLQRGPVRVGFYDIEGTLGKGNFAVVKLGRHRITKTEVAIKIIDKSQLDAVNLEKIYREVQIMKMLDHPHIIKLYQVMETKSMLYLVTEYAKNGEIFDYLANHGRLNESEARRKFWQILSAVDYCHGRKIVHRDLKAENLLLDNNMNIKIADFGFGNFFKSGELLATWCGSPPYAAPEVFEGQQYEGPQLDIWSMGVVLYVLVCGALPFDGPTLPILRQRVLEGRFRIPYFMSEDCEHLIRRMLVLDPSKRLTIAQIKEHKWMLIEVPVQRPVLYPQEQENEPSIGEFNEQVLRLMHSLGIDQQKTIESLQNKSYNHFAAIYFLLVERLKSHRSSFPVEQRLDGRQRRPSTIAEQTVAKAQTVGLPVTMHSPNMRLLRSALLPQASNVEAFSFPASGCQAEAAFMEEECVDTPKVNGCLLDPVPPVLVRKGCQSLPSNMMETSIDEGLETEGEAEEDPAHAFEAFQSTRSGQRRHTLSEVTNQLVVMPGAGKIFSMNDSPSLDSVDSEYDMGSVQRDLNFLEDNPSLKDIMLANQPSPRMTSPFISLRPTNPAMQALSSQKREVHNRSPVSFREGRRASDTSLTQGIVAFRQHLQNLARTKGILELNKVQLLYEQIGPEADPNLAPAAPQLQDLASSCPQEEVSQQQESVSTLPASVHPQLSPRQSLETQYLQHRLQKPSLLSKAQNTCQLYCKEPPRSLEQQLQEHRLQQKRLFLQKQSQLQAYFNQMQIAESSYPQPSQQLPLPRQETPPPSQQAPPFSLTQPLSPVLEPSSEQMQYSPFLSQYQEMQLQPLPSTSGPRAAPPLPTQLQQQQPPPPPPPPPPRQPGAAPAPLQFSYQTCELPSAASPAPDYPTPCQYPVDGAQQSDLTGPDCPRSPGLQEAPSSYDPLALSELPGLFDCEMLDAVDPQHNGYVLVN
For test [5], the target named is T2, Mitogen-activated protein kinase kinase kinase kinase 2 (Homo sapiens, UniProt Q12851).
T2 sequence (Q12851 whole entry): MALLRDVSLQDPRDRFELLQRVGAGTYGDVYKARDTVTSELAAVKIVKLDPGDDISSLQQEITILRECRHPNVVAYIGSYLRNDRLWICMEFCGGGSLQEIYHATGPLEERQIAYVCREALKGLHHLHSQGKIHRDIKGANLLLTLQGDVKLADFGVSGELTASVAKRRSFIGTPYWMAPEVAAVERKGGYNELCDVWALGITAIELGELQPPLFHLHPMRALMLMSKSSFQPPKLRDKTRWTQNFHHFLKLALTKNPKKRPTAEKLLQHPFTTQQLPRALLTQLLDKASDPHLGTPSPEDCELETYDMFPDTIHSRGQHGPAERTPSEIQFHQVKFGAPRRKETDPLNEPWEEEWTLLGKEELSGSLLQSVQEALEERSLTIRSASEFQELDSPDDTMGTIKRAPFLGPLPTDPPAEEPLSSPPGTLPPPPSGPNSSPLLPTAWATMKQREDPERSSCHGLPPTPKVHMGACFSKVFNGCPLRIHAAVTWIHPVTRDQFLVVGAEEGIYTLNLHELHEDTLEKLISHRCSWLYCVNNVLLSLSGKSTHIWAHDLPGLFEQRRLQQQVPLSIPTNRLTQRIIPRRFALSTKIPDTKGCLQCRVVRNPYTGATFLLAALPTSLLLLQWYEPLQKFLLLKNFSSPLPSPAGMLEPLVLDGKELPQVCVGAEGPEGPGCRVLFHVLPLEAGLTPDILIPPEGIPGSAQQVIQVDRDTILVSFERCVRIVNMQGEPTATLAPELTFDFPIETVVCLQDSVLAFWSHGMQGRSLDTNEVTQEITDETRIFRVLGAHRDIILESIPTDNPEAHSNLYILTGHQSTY

For test [6], the target named is Serine/threonine-protein kinase MRCK alpha (Homo sapiens, UniProt Q5VT25).
Chain of Serine/threonine-protein kinase MRCK alpha (Q5VT25 whole entry): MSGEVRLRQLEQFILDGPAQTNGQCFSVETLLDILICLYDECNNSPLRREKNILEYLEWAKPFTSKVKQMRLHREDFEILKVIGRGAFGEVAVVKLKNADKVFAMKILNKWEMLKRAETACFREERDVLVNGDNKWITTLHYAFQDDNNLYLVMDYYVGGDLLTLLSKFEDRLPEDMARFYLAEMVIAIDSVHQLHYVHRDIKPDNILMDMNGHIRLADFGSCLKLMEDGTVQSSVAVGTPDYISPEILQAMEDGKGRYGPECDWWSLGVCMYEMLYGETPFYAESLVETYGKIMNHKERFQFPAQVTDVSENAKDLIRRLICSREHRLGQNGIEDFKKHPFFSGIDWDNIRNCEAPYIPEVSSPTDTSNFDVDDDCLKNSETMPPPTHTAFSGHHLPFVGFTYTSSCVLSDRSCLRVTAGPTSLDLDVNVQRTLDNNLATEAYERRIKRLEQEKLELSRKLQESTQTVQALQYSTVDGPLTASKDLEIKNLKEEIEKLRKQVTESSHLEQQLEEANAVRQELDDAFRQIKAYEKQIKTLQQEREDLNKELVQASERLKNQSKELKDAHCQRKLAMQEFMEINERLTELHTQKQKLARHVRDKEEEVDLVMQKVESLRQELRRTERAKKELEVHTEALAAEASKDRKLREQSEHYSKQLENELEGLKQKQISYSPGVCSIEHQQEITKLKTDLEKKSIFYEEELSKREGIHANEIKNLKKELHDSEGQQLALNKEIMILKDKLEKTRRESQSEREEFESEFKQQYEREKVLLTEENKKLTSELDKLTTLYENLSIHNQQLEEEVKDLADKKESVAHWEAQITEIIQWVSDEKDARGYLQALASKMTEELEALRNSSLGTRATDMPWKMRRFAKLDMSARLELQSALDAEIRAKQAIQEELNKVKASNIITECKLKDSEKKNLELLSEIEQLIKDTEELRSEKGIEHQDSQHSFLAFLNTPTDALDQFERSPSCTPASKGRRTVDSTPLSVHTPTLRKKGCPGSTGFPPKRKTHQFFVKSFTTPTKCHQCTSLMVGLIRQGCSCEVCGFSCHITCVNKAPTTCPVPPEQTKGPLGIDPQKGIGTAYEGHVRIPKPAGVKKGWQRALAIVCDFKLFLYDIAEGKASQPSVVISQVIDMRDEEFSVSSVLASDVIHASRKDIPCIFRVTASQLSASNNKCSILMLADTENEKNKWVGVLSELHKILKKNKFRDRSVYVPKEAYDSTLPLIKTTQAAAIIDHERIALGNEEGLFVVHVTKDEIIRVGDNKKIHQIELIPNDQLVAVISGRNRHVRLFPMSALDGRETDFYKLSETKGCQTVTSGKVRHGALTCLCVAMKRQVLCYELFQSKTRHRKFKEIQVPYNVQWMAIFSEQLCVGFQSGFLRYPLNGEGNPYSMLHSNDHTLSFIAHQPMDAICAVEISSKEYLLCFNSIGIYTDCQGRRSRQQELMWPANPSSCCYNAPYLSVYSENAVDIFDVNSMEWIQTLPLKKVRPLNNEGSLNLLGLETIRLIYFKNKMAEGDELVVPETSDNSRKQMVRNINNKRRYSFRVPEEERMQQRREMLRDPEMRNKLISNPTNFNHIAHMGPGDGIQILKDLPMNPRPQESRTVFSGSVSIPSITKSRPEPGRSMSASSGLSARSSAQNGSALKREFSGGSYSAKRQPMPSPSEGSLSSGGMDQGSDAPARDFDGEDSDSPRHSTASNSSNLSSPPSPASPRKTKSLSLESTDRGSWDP
Test [7] deals with T3, Uncharacterized protein FLJ45252 (Homo sapiens, UniProt Q6ZSR9).
T3 sequence (Q6ZSR9 whole entry): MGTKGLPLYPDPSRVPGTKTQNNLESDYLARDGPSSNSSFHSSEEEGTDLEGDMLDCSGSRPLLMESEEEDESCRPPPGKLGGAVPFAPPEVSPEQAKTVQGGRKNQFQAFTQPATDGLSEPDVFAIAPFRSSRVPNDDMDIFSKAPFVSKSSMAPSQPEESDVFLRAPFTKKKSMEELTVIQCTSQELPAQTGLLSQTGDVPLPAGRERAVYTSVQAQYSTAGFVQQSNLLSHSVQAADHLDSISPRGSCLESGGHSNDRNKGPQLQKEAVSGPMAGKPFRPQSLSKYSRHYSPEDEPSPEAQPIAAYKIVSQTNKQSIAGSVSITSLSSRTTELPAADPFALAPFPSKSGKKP
Particulars: read-out: Kd apparent; k-562, colo 205, sk-n-be(2) and mv-4-11.
Note: in the data inactive means no Kd found up to 30 µM.

Chain of Ribosomal protein S6 kinase alpha-3 (P51812 whole entry): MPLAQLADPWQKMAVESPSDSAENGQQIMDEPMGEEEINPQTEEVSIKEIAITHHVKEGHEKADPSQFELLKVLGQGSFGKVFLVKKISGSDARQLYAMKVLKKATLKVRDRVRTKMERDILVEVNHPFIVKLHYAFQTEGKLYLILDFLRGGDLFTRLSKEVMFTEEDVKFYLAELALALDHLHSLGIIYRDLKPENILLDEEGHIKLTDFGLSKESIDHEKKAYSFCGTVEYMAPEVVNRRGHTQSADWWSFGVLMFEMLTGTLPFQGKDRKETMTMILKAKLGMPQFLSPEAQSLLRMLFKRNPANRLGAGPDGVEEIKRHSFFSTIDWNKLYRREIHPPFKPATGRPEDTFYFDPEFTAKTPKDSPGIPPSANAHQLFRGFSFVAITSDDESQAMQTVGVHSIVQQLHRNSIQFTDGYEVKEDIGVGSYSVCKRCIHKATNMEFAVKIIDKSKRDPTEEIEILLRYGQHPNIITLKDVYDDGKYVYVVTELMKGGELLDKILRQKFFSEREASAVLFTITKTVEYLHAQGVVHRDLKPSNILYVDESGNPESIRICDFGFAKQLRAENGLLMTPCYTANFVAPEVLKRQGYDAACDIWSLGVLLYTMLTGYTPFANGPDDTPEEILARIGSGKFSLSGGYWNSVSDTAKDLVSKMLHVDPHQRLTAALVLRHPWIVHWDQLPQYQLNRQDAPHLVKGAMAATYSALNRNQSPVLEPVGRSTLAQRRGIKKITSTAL

Regarding `CC[C@@H]1C(=O)N(C)c2cnc(Nc3ccc(C(=O)N[C@H]4CC[C@H](N5CCN(CC6CC6)CC5)CC4)cc3OC)nc2N1C(C)C` [VOLASERTIB], the Kd in test [1], in test [2], in test [3], in test [4], in test [5] and in test [6] was > 30 µM (inactive) throughout.
With `Cc1ccc(S(=O)(=O)Nc2nc3ccccc3nc2Nc2ccc3nsnc3c2)cc1`, the Kd in test [1], in test [2], in test [3], in test [4], in test [5] and in test [7] was > 30 µM (inactive) throughout. In test [6], the Kd is > 30 µM (inactive).
On to `Cn1cc(-c2ccc(F)c(C(F)(F)F)c2)nc1C1CCN(c2ncnc3[nH]ncc23)CC1` [LY-2584702], for which the Kd in test [1], in test [2], in test [3], in test [4], in test [5] and in test [7] was > 30 µM (inactive) each time. The Kd in test [6] was > 30 µM (inactive).
`OCCn1cc(-c2cnc3nnn(Cc4ccc5ncccc5c4)c3n2)cn1` [PF-04217903]: the Kd in test [2], in test [3], in test [4], in test [7] and in test [6] was > 30 µM (inactive) each time.
For the molecule `CCCS(=O)(=O)Nc1ccc(F)c(C(=O)c2c[nH]c3ncc(-c4ccc(Cl)cc4)cc23)c1F` [VEMURAFENIB], the Kd in test [1], in test [2], in test [3], in test [4], in test [7] and in test [6] was > 30 µM (inactive) in each case.
On to `CCn1c(-c2nonc2N)nc2c(C#CC(C)(C)O)ncc(OC[C@H]3CCCNC3)c21` [GSK-690693], for which the Kd in test [7] is > 30 µM (inactive).
As to `Cc1cc(Nc2cc(N3CCN(C)CC3)nc(/C=C/c3ccccc3)n2)n[nH]1` [ENMD-2076], the Kd in test [3], in test [4] and in test [7] was > 30 µM (inactive) throughout.
Consider `CCS(=O)(=O)N1CC(CC#N)(n2cc(-c3ncnc4[nH]ccc34)cn2)C1` [BARICITINIB], for which the Kd was > 30 µM (inactive) in test [1]; > 30 µM (inactive) in test [2]; > 30 µM (inactive) in test [4]; > 30 µM (inactive) in test [5]; 0.078 µM (active) in test [7]; > 30 µM (inactive) in test [6].
For `Nc1nc(N)c2nc(-c3cccc(O)c3)c(-c3cccc(O)c3)nc2n1` [TG100-115], the Kd in test [7] was 3.01 µM (active).
Regarding `CN1CCN(c2ccc3nc(-c4c(N)c5c(F)cccc5[nH]c4=O)[nH]c3c2)CC1` [DOVITINIB], the Kd in test [7] was 0.104 µM (active).
As for `O=C(Nc1cccc(Cl)c1)Nc1ncc(CCNc2ncnc3ccsc23)s1` [SNS-314], the Kd in test [2], in test [3], in test [4] and in test [7] was > 30 µM (inactive) in each case.
Consider `C1=C/COCc2cc(ccc2OCCN2CCCC2)Nc2nccc(n2)-c2cccc(c2)COC/1` [PACRITINIB], for which the Kd in test [1] was > 30 µM (inactive); in test [3], > 30 µM (inactive); in test [4], > 30 µM (inactive); in test [5] it was 3.72 µM (active); in test [7], 0.052 µM (active); in test [6], > 30 µM (inactive).
As for `CCc1cnn2c(NCc3ccc[n+]([O-])c3)cc(N3CCCC[C@H]3CCO)nc12` [DINACICLIB], the Kd in test [2], in test [3], in test [4] and in test [6] was > 30 µM (inactive) throughout.
Regarding `C[C@@H](c1ccc2nccn2c1)n1nnc2ncc(-c3cnn(C)c3)nc21` [SAVOLITINIB], the Kd in test [1], in test [2], in test [4], in test [5], in test [7] and in test [6] was > 30 µM (inactive) in each case.
For the molecule `N[C@@H]1CCCN(c2c(/C=C3\SC(=O)NC3=O)cccc2-c2ccccc2)C1`, the Kd in test [1], in test [2], in test [4], in test [5], in test [7] and in test [6] was > 30 µM (inactive) throughout.
For the molecule `Cc1nc(N)sc1-c1ccnc(Nc2ccc(N3CCOCC3)cc2)n1` [CYC-116], the figures for the Kd in test [3], in test [4] and in test [7] were > 30 µM (inactive), 1.4 µM (active) and 0.007 µM (active), respectively.
Turning to `CN1CCC(CNc2ccc3ncc(-c4cccc(OC(F)(F)F)c4)n3n2)CC1` [SGI-1776], the Kd was > 30 µM (inactive) in test [1]; 2.16 µM (active) in test [2]; > 30 µM (inactive) in test [3]; 6.12 µM (active) in test [4]; > 30 µM (inactive) in test [5]; > 30 µM (inactive) in test [7].
As to `CC(C)Nc1cc(-c2c[nH]c(C(=O)N[C@H](CO)c3cccc(Cl)c3)c2)c(Cl)cn1` [ULIXERTINIB], the Kd in test [1], in test [2], in test [4], in test [5], in test [7] and in test [6] was > 30 µM (inactive) in each case.
As for `CNC(=O)c1cc(Oc2ccc(NC(=O)Nc3ccc(Cl)c(C(F)(F)F)c3)c(F)c2)ccn1` [REGORAFENIB], the Kd in test [1], in test [2], in test [3], in test [4], in test [5] and in test [6] was > 30 µM (inactive) in each case.
As to `Cc1cn(-c2cc(NC(=O)c3ccc(C)c(Nc4nccc(-c5cccnc5)n4)c3)cc(C(F)(F)F)c2)cn1` [NILOTINIB], the Kd in test [7] was > 30 µM (inactive).
With `CC[C@H](Nc1ncnc2[nH]cnc12)c1nc2cccc(F)c2c(=O)n1-c1ccccc1` [IDELALISIB], the Kd in test [1], in test [2], in test [3], in test [4], in test [5] and in test [6] was > 30 µM (inactive) each time.
`CN1N=C(N)c2cn([C@@H]3O[C@H](COP(=O)(O)O)[C@@H](O)[C@H]3O)c3ncnc1c23` [TRICIRIBINE PHOSPHATE]: the Kd in test [1], in test [2], in test [3], in test [4], in test [5] and in test [7] was > 30 µM (inactive) throughout.
